Assay results from US11752156B2, “Compositions and methods for treating hyperproliferative skin disorders” (Athenex HK Innovative Limited, priority 2018, dated 2023).
“And” between values parts separate entries of the source, which are not always exact repeats. Equal entries are not always repeated. Where two headings read alike, the source gives them in different places.

What was measured:
[1] = system: CCD 1106 KERTr human keratinocyte cell line; test: MTT cell proliferation assay, 72 hours, dark or blue light, keratinocytes; assay type: cell-based; details: for inhibition at 0.005 µM / inhibition at 0.02 µM / inhibition at 0.08 µM / inhibition at 0.32 µM / inhibition at 1.28 µM / inhibition at 0.01 µM / inhibition at 0.04 µM: Homo sapiens, read-out: growth inhibition relative to untreated control; for effect of blue light exposure with the drug on cell growth inhibition: for example 6 hours of blue light with 10 nm KX01
Experimental: The effects of combined treatment with KX01, a vitamin D derivative, and/or blue/UV light exposure were characterized using a cell proliferation assay. Cell proliferation was assessed by using an MTT assay. Cells were seeded in 96-well plate (3,000-5,000 cells per well) and treated with test compounds at varying concentrations (e.g. KX01: 5 to 80 nM; calcipotriol 5 to 1,280 nM) for 72 hours, either in the dark or exposed to blue light irradiation (for 2, 4, or 6 hours). To each well, 10 μl of 3-(4,5-dimethylthiazol-2-yl)-2,5-diphenyltetrazolium bromide (MTT) (RPI Corporation™) solution (5 mg/ml in PBS) was added and incubated at 37° C. for 3 hours. Next, 100 μl of 20% SDS was added to each well. After overnight incubation at 37° C., the absorbance in each well was measured at 570 nm in a microplate reader (Molecular Devices™). The cell growth curve and GI50s were calculate using GraphPad Prism™ 5 software. Tables 13 and 14 show the results of cell growth inhibition studies (expressed as a percentage relative to control cell growth) for treatment with either KX01 or calcipotriol in combination with exposure to blue light. […] The percentage of growth inhibition relative to untreated control is shown. […] The percentage of growth inhibition relative to untreated control is shown. Tables 15 to 18 show the effects of combined treatment with KX01, calcipotriol, and exposure to blue light at 0 hours, 2 hours, 4 hours, and 6 hours of light exposure (respectively). Values are expressed as the percentage of growth inhibition relative to cells grown under control conditions (0 hours blue light, [KX01]=0, [calcipotriol]=0). […] Results are shown below in Tables 27 to Table 30, which show results from 0, 2, 4, and 6 hours of blue light exposure (respectively). Values are expressed as the percentage of growth inhibition relative to cells grown under control conditions (0 hours blue light, [KX01]=0, [calcipotriol]=0).

[2] = system: human keratinocyte cell line; test: combinatorial dose response surface study of cell viability (PSI), KX01 and calcipotriol; assay type: cell-based; details: model estimate
Description: FIG. 6: Dose response surface of cell viability versus calcipotriol concentration versus KX01 concentration. Synergistic combinations of calcipotriol and KX01 are below the surface of additivity (indicating enhanced inhibition of growth), and antagonistic combinations are above the surface of additivity (indicative of reduced inhibition of growth). Individual dose response curves for KX01 and calcipotriol as determined above can be used to generate dose response surfaces representative of the additive effects of these compounds on keratinocyte growth. […] A PSI value of 1 corresponds to an additive effect. A PSI value of less than 1 indicates a synergistic effect, and a PSI value of greater than 1 indicates an antagonistic effect. Cell viability was measured in a number of experiments. In Experiment 1, the concentrations of calcipotriol were: 0, 3, 9, 27, 81, and 243 nM, and the concentrations of KX01 were: 0, 5, 10, 20, 40, 60, 80, and 160 nM. In Experiment 2, the concentrations of calcipotriol were: 0, 5, 10, 20, 40, 80, 160, 320, and 1280 nM, and the concentrations of KX01 were: 1, 3, 9, 27, and 81 nM. […] It is notable that unexpected synergy is observed across a range of concentrations and combinations. Tables 7, 8, and 9 show the results for determination of individual IC50 and maximum inhibitory concentration values for KX01 and calcipotriol, as well as the PSI value for the drug combination. […]

[3] = system: apoptosis by G2/M arrest; details: cited from earlier work
[4] = system: tubulin polymerization; details: cited from earlier work
[5] = system: cell proliferation/growth; test: combined treatment with KX01 and tazarotene, inhibition of cell proliferation/growth; assay type: cell-based
Description: Examples of suitable retinoids include retinol, retinal, retinoic acid isotretinoin, alitreninoin, etretinate, acitretin, adapalene, bexarotene, and/or tazarotene. FIGS. 7 and 8 show the effects of tazarotene on growth of cells in culture, including CCD-1106 KERTr keratinocytes (FIG. 7) and A431 cells (epidermoid cells obtained from a human squamous cell carcinoma, FIG. 8).

[6] = biological target: SRC-kinase (Homo sapiens, UniProt P12931); details: cited from earlier work
Sequence of SRC-kinase (P12931 whole entry): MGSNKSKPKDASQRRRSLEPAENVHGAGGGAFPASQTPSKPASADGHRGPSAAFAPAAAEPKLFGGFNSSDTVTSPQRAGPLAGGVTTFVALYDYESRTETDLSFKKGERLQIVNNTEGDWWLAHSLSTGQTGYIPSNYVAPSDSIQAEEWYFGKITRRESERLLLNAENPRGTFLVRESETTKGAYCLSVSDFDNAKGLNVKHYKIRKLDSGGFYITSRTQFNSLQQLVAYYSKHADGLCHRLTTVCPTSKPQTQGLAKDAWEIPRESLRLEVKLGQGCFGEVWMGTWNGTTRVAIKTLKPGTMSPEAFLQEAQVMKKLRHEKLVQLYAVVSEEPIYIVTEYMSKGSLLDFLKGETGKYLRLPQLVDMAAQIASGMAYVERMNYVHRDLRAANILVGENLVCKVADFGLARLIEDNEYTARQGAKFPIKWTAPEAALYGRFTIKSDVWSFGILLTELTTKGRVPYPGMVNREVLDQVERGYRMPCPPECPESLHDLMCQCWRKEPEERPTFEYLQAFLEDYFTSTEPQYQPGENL

In the case of `C=C1/C(=C\C=C2/CCC[C@]3(C)[C@@H]([C@H](C)/C=C/[C@@H](O)C4CC4)CC[C@@H]23)C[C@@H](O)C[C@@H]1O` [Calcipotriol, calcipotriol], the inhibition at 0.005 µM ([1]; CCD-1106, 0 h, calcipotriol 5 nM, blue light 0 h) is reported as 9%, the inhibition at 0.02 µM ([1]; CCD-1106, 0 h, calcipotriol 20 nM, blue light 0 h) is reported as 24% and the inhibition at 0.08 µM ([1]; CCD-1106, 0 h, calcipotriol 80 nM, blue light 0 h) is reported as 45%. For the same compound, the inhibition at 0.32 µM ([1]; CCD-1106, 0 h, calcipotriol 320 nM, blue light 0 h) was 48%, the inhibition at 1.28 µM ([1]; CCD-1106, 0 h, calcipotriol 1,280 nM, blue light 0 h) was 43% and the inhibition at 0.005 µM ([1]; CCD-1106, 2 h, calcipotriol 5 nM, blue light 2 h) was 32%. For the same compound, the inhibition at 0.02 µM ([1]; CCD-1106, 2 h, calcipotriol 20 nM, blue light 2 h) was 39%, the inhibition at 0.08 µM ([1]; CCD-1106, 2 h, calcipotriol 80 nM, blue light 2 h) was 55% and the inhibition at 0.32 µM ([1]; CCD-1106, 2 h, calcipotriol 320 nM, blue light 2 h) was 66%. For the same compound, the inhibition at 1.28 µM ([1]; CCD-1106, 2 h, calcipotriol 1,280 nM, blue light 2 h) was 62%, the inhibition at 0.005 µM ([1]; CCD-1106, 4 h, calcipotriol 5 nM, blue light 4 h) was 53% and the inhibition at 0.02 µM ([1]; CCD-1106, 4 h, calcipotriol 20 nM, blue light 4 h) was 58%. The inhibition at 0.08 µM ([1]; CCD-1106, 4 h, calcipotriol 80 nM, blue light 4 h) was 70%, the inhibition at 0.32 µM ([1]; CCD-1106, 4 h, calcipotriol 320 nM, blue light 4 h) was 71% and the inhibition at 1.28 µM ([1]; CCD-1106, 4 h, calcipotriol 1,280 nM, blue light 4 h) was 69%. The inhibition at 0.005 µM ([1]; CCD-1106, 6 h, calcipotriol 5 nM, blue light 6 h) was 56%, the inhibition at 0.02 µM ([1]; CCD-1106, 6 h, calcipotriol 20 nM, blue light 6 h) was 59% and the inhibition at 0.08 µM ([1]; CCD-1106, 6 h, calcipotriol 80 nM, blue light 6 h) was 71%. For the same compound, the inhibition at 0.32 µM ([1]; CCD-1106, 6 h, calcipotriol 320 nM, blue light 6 h) was 72%, the inhibition at 1.28 µM ([1]; CCD-1106, 6 h, calcipotriol 1,280 nM, blue light 6 h) was 66% and the “growth inhibition relative to untreated control” value ([1]; calcipotriol 5 nM, blue light 0 h) was 6%. The “growth inhibition relative to untreated control” value ([1]; calcipotriol 5 nM, blue light 2 h) was 33%, the “growth inhibition relative to untreated control” value ([1]; calcipotriol 5 nM, blue light 4 h) was 47% and the “growth inhibition relative to untreated control” value ([1]; calcipotriol 5 nM, blue light 6 h) was 51%. The “growth inhibition relative to untreated control” value ([1]; calcipotriol 20 nM, blue light 0 h) was 17%, the “growth inhibition relative to untreated control” value ([1]; calcipotriol 20 nM, blue light 4 h) was 52% and the “growth inhibition relative to untreated control” value ([1]; calcipotriol 80 nM, blue light 0 h) was 35%. For the same compound, the “growth inhibition relative to untreated control” value ([1]; calcipotriol 80 nM, blue light 4 h) was 64%, the “growth inhibition relative to untreated control” value ([1]; calcipotriol 80 nM, blue light 6 h) was 67% and the “growth inhibition relative to untreated control” value ([1]; calcipotriol 320 nM, blue light 2 h) was 60%. For the same compound, the “growth inhibition relative to untreated control” value ([1]; calcipotriol 320 nM, blue light 4 h) was 67%, the “growth inhibition relative to untreated control” value ([1]; calcipotriol 1,280 nM, blue light 0 h) was 37% and the “growth inhibition relative to untreated control” value ([1]; calcipotriol 1,280 nM, blue light 4 h) was 63%. The “growth inhibition relative to untreated control” value ([1]; calcipotriol 1,280 nM, blue light 6 h) was 67%, the “effect of blue light exposure with the drug on cell growth inhibition” value [1] was “Synergistic effects” and the IC50 ([2]; Homo sapiens, Keratinocyte) was 112 nM. The IC50 [2] was 59.3 nM and the “Max Inhibition” value [2] was 0.474 and 0.36 and 0.439.
In the case of `O=C(Cc1ccc(-c2ccc(OCCN3CCOCC3)cc2)cn1)NCc1ccccc1` [KX01, N-benzyl-2-(5-{4-[2-(morpholine-4-yl)ethoxy]phenyl}pyridine-2-yl)acetamide], the induction of apoptosis [3] is listed as “induces apoptosis by G2/M arrest”, the “inhibition of tubulin polymerization” value [4] is listed as “inhibits tubulin polymerization” and the H [5] is listed as 3.3. For the same compound, the IC50 [5] was 45 nM, the Imax [5] was 0.92 and the inhibition at 0.01 µM ([1]; CCD-1106, 2 h, KX01 10 nM, blue light 2 h) was 27%. It also gave an inhibition at 0.02 µM ([1]; CCD-1106, 2 h, KX01 20 nM, blue light 2 h) of 63%, an inhibition at 0.04 µM ([1]; CCD-1106, 2 h, KX01 40 nM, blue light 2 h) of 92% and an inhibition at 0.01 µM ([1]; CCD-1106, 4 h, KX01 10 nM, blue light 4 h) of 47%. The inhibition at 0.02 µM ([1]; CCD-1106, 4 h, KX01 20 nM, blue light 4 h) was 64%, the inhibition at 0.04 µM ([1]; CCD-1106, 4 h, KX01 40 nM, blue light 4 h) was 87% and the inhibition at 0.08 µM ([1]; CCD-1106, 4 h, KX01 80 nM, blue light 4 h) was 92%. For the same compound, the inhibition at 0.01 µM ([1]; CCD-1106, 6 h, KX01 10 nM, blue light 6 h) was 56%, the inhibition at 0.02 µM ([1]; CCD-1106, 6 h, KX01 20 nM, blue light 6 h) was 70% and the inhibition at 0.04 µM ([1]; CCD-1106, 6 h, KX01 40 nM, blue light 6 h) was 88%. The inhibition at 0.08 µM ([1]; CCD-1106, 6 h, KX01 80 nM, blue light 6 h) was 87%, the “growth inhibition relative to untreated control” value ([1]; KX01 10 nM, blue light 0 h) was 4% and 9% and 6% and the “growth inhibition relative to untreated control” value ([1]; KX01 10 nM, blue light 2 h) was 32% and 34%. For the same compound, the “growth inhibition relative to untreated control” value ([1]; KX01 10 nM, blue light 4 h) was 50%, the “growth inhibition relative to untreated control” value ([1]; KX01 10 nM, blue light 6 h) was 62% and 57% and the “growth inhibition relative to untreated control” value ([1]; KX01 20 nM, blue light 0 h) was 49%. For the same compound, the “growth inhibition relative to untreated control” value ([1]; KX01 20 nM, blue light 2 h) was 74% and 68%, the “growth inhibition relative to untreated control” value ([1]; KX01 20 nM, blue light 4 h) was 69% and 68% and the “growth inhibition relative to untreated control” value ([1]; KX01 20 nM, blue light 6 h) was 67% and 73%. The “growth inhibition relative to untreated control” value ([1]; KX01 40 nM, blue light 0 h) was 90% and 45%, the “growth inhibition relative to untreated control” value ([1]; KX01 40 nM, blue light 2 h) was 98% and 91% and the “growth inhibition relative to untreated control” value ([1]; KX01 40 nM, blue light 4 h) was 86%. The “growth inhibition relative to untreated control” value ([1]; KX01 40 nM, blue light 6 h) was 84%, the “growth inhibition relative to untreated control” value ([1]; KX01 80 nM, blue light 0 h) was 96% and 48% and 95% and the “growth inhibition relative to untreated control” value ([1]; KX01 80 nM, blue light 4 h) was 93% and 90%. For the same compound, the “growth inhibition relative to untreated control” value ([1]; KX01 80 nM, blue light 6 h) was 83%, the “effect of blue light exposure with the drug on cell growth inhibition” value [1] was “Synergistic effects” and the SRC-kinase inhibition [6] was “inhibit SRC-kinase”. The IC50 ([2]; Homo sapiens, Keratinocyte) was 41.3 nM, the IC50 [2] was 32.8 nM and 47 nM and the “Max Inhibition” value [2] was 0.856 and 0.77 and 0.741.
